This data set can be described thus: recombinant barcode read abundance after kanamycin selection (control-corrected) (log10(CPM+1)); higher = more efficient recombination; sequences stand for … in AGTGCAGAGAAAATCGGCCAGTTTTCTCTGCCTGCAGTCCGCATGCCGT…AGATTTATGCAGCGGACTGCCTTTCTCCCAAAGTGATAAACCGGACAGTATCATGGACCGGTTTTCCCGGTAATCCGTATTTGCAAGGTTGGTTTCACT; site = the 11-nt target. In a few lines: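 The screen was pooled in E. coli and paired targets with IS621 bridge RNA target-binding loops. Recombination efficiency is taken from barcode counts per million at recombinant junctions, averaged and adjusted against the control. Values, in the form log10(CPM+1), come from duplicate plating on chloramphenicol/ampicillin LB agar or on chloramphenicol/ampicillin/kanamycin with 0.1 mM IPTG.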
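Note: IS621 recombinase and bridge RNA in Escherichia coli cells.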

On to “CTGGAAACTTGGGTTCTAACCTGTTGCCT (site CGGGTAACTAG)”, for which the “recombinant barcode read abundance (log10)” value came out at 0.0164.

Take “CTGGAAACTTGGGTTCTAACCTGTTGCCT (site CTGGAAACTAG)”: the “recombinant barcode read abundance (log10)” value came out at 1.23.

For “CTGGACACTTGGGTTCTAACCTGTTGCCT (site CTAGACACTAG)”, the “recombinant barcode read abundance (log10)” value came to 1.94.

Regarding “CTGGACACTTGGGTTCTAACCTGTTGCCT (site CTCGACACTAG)”, the “recombinant barcode read abundance (log10)” value was determined as 0.0566.

As to “CTGGACACTTGGGTTCTAACCTGTTGCCT (site CTGGACACTAG)”, the “recombinant barcode read abundance (log10)” value was 1.83.

“CTGGACACTTGGGTTCTAACCTGTTGCCT (site CTTGACACTAG)”: the “recombinant barcode read abundance (log10)” value was determined as 0.329.

For “CTGGGCACTTGGGTTCTAACCTGTTGCCT (site CGGGGCACTAG)”, the “recombinant barcode read abundance (log10)” value turned out to be 0.164.

As for “CTGGGCACTTGGGTTCTAACCTGTTGCCT (site CTGGGCACTAG)”, the “recombinant barcode read abundance (log10)” value is 0.395.

“CTGGGCCCTTGGGTTCTAACCTGTTGCCT (site CTGAGCCCTAG)”: the “recombinant barcode read abundance (log10)” value is 0.12.

Consider “CTGGGCCCTTGGGTTCTAACCTGTTGCCT (site CTGCGCCCTAG)”, for which the “recombinant barcode read abundance (log10)” value is 0.0544.

“CTGGGCCCTTGGGTTCTAACCTGTTGCCT (site CTGGGCCCTAG)”: the “recombinant barcode read abundance (log10)” value was 0.277.

On to “CTGGGCCCTTGGGTTCTAACCTGTTGCCT (site CTGTGCCCTAG)”, for which the “recombinant barcode read abundance (log10)” value was determined as 0.214.

For “CTGGGTCCTTGGGTTCTAACCTGTTGCTT (site CTGGGTCCTAA)”, the “recombinant barcode read abundance (log10)” value was determined as 1.48.

On to “CTGGGTCCTTGGGTTCTAACCTGTTGCTT (site CTTGGTTCTAA)”, for which the “recombinant barcode read abundance (log10)” value is 0.179.

“CTGGTTCCTTGGGTTCTAACCTGTTGCCT (site CTGGCTCCTAA)”: the “recombinant barcode read abundance (log10)” value was found to be 0.874.

As to “CTGGTTCCTTGGGTTCTAACCTGTTGCCT (site CTGGTTCCTAG)”, the “recombinant barcode read abundance (log10)” value turned out to be 1.2.

For “CTGTTGTCTTGGGTTCTAACCTGTTGCCA (site CTGATGTCTTG)”, the “recombinant barcode read abundance (log10)” value was found to be 0.204.

Regarding “CTGTTGTCTTGGGTTCTAACCTGTTGCCA (site CTGCTGTCTTG)”, the “recombinant barcode read abundance (log10)” value was 0.00714.

Regarding “CTGTTGTCTTGGGTTCTAACCTGTTGCCA (site CTGGTGTCTTG)”, the “recombinant barcode read abundance (log10)” value turned out to be 0.0643.

Turning to “CTGTTGTCTTGGGTTCTAACCTGTTGCCA (site CTGTTGTCTTG)”, the “recombinant barcode read abundance (log10)” value was 0.487.

Turning to “CTTACAGCTTGGGTTCTAACCTGTTGCCT (site CTTACAGCTAG)”, the “recombinant barcode read abundance (log10)” value came out at 0.644.

On to “CTTACAGCTTGGGTTCTAACCTGTTGCCT (site CTTACCGCTAG)”, for which the “recombinant barcode read abundance (log10)” value turned out to be 0.138.

In the case of “CTTACAGCTTGGGTTCTAACCTGTTGCCT (site CTTACGGCTAG)”, the “recombinant barcode read abundance (log10)” value turned out to be 0.0141.

“CTTACAGCTTGGGTTCTAACCTGTTGCCT (site CTTACTGCTAG)”: the “recombinant barcode read abundance (log10)” value is 0.147.

Consider “CTTAGGACTTGGGTTCTAACCTGTTGCCA (site CTTAGGACTAG)”, for which the “recombinant barcode read abundance (log10)” value was determined as 0.257.

Consider “CTTAGGACTTGGGTTCTAACCTGTTGCCA (site CTTAGGACTCG)”, for which the “recombinant barcode read abundance (log10)” value was 0.0285.

In the case of “CTTAGGACTTGGGTTCTAACCTGTTGCCA (site CTTAGGACTGG)”, the “recombinant barcode read abundance (log10)” value worked out at 0.0906.

On to “CTTAGGACTTGGGTTCTAACCTGTTGCCA (site CTTAGGACTTG)”, for which the “recombinant barcode read abundance (log10)” value amounted to 0.265.

With “CTTAGGACTTGGGTTCTAACCTGTTGCCG (site CTTAGGACTAG)”, the “recombinant barcode read abundance (log10)” value amounted to 0.235.

On to “CTTAGGACTTGGGTTCTAACCTGTTGCCG (site CTTAGGACTCG)”, for which the “recombinant barcode read abundance (log10)” value was found to be 0.577.

On to “CTTAGGACTTGGGTTCTAACCTGTTGCCG (site CTTAGGACTGG)”, for which the “recombinant barcode read abundance (log10)” value was 0.155.

Take “CTTAGGACTTGGGTTCTAACCTGTTGCCG (site CTTAGGACTTG)”: the “recombinant barcode read abundance (log10)” value worked out at 0.199.

Take “CTTAGTACTTGGGTTCTAACCTGTTGCAT (site CTTAGTACTAT)”: the “recombinant barcode read abundance (log10)” value was 0.246.

As to “CTTAGTACTTGGGTTCTAACCTGTTGCAT (site GACGTGCCTCG)”, the “recombinant barcode read abundance (log10)” value was determined as 0.432.

Turning to “CTTCAATCTTGGGTTCTAACCTGTTGCCT (site CTTAAATCTAG)”, the “recombinant barcode read abundance (log10)” value came to 0.146.

In the case of “CTTCAATCTTGGGTTCTAACCTGTTGCCT (site CTTCAATCTAG)”, the “recombinant barcode read abundance (log10)” value amounted to 0.267.

Regarding “CTTCAATCTTGGGTTCTAACCTGTTGCCT (site CTTGAATCTAG)”, the “recombinant barcode read abundance (log10)” value was 0.35.

As for “CTTCAATCTTGGGTTCTAACCTGTTGCCT (site CTTTAATCTAG)”, the “recombinant barcode read abundance (log10)” value was 0.0762.

For “CTTCACCCTTGGGTTCTAACCTGTTGCCT (site CTTCAACCTAG)”, the “recombinant barcode read abundance (log10)” value is 0.134.

“CTTCACCCTTGGGTTCTAACCTGTTGCCT (site CTTCACCCTAG)”: the “recombinant barcode read abundance (log10)” value was found to be 1.76.

Turning to “CTTCACCCTTGGGTTCTAACCTGTTGCCT (site CTTCAGCCTAG)”, the “recombinant barcode read abundance (log10)” value is 0.117.

Take “CTTCACCCTTGGGTTCTAACCTGTTGCCT (site CTTCATCCTAG)”: the “recombinant barcode read abundance (log10)” value was 0.00728.

Turning to “CTTCGAGCTTGGGTTCTAACCTGTTGCTG (site CTTCGAGCTCA)”, the “recombinant barcode read abundance (log10)” value is 1.52.

In the case of “CTTCGAGCTTGGGTTCTAACCTGTTGCTG (site CTTCGAGCTCC)”, the “recombinant barcode read abundance (log10)” value turned out to be 0.193.

Consider “CTTCGAGCTTGGGTTCTAACCTGTTGCTG (site CTTCGAGCTCG)”, for which the “recombinant barcode read abundance (log10)” value was determined as 0.184.

Consider “CTTCGAGCTTGGGTTCTAACCTGTTGCTG (site CTTCGAGCTCT)”, for which the “recombinant barcode read abundance (log10)” value was found to be 0.294.

In the case of “CTTCGCACTTGGGTTCTAACCTGTTGCCT (site CATCGCACTAG)”, the “recombinant barcode read abundance (log10)” value was determined as 0.0381.

For “CTTCGCACTTGGGTTCTAACCTGTTGCCT (site CCTCGCACTAG)”, the “recombinant barcode read abundance (log10)” value came out at 0.0814.

On to “CTTCGCACTTGGGTTCTAACCTGTTGCCT (site CGTCGCACTAG)”, for which the “recombinant barcode read abundance (log10)” value is 0.0111.

As for “CTTCGCACTTGGGTTCTAACCTGTTGCCT (site CTTCGCACTAG)”, the “recombinant barcode read abundance (log10)” value turned out to be 0.0708.

Turning to “CTTCGGGCTTGGGTTCTAACCTGTTGCAT (site CTTCGGGCTAT)”, the “recombinant barcode read abundance (log10)” value is 1.26.

For “CTTCGGGCTTGGGTTCTAACCTGTTGCAT (site CTTTGAGCTAT)”, the “recombinant barcode read abundance (log10)” value was 0.242.

As for “CTTGCATCTTGGGTTCTAACCTGTTGCCT (site CTTGCATCTAG)”, the “recombinant barcode read abundance (log10)” value was 0.383.

“CTTGCATCTTGGGTTCTAACCTGTTGCCT (site GGGCACACTGT)”: the “recombinant barcode read abundance (log10)” value is 0.293.

In the case of “CTTGGAACTTGGGTTCTAACCTGTTGCCT (site CTTGGAACTAG)”, the “recombinant barcode read abundance (log10)” value is 0.224.

With “CTTGGAACTTGGGTTCTAACCTGTTGCCT (site CTTGGACCTAG)”, the “recombinant barcode read abundance (log10)” value came out at 0.242.

For “CTTGGAACTTGGGTTCTAACCTGTTGCCT (site CTTGGAGCTAG)”, the “recombinant barcode read abundance (log10)” value amounted to 0.

In the case of “CTTGGAACTTGGGTTCTAACCTGTTGCCT (site CTTGGATCTAG)”, the “recombinant barcode read abundance (log10)” value came out at 0.228.

As to “CTTGGATCTTGGGTTCTAACCTGTTGCCT (site CTTGGAACTAG)”, the “recombinant barcode read abundance (log10)” value was determined as 0.142.

Regarding “CTTGGATCTTGGGTTCTAACCTGTTGCCT (site CTTGGACCTAG)”, the “recombinant barcode read abundance (log10)” value stood at 0.116.

Turning to “CTTGGATCTTGGGTTCTAACCTGTTGCCT (site CTTGGAGCTAG)”, the “recombinant barcode read abundance (log10)” value came out at 0.0716.

On to “CTTGGATCTTGGGTTCTAACCTGTTGCCT (site CTTGGATCTAG)”, for which the “recombinant barcode read abundance (log10)” value was determined as 0.913.

Consider “CTTGGGCCTTGGGTTCTAACCTGTTGCCT (site CATGGGCCTAG)”, for which the “recombinant barcode read abundance (log10)” value worked out at 0.0436.

In the case of “CTTGGGCCTTGGGTTCTAACCTGTTGCCT (site CCTGGGCCTAG)”, the “recombinant barcode read abundance (log10)” value is 0.16.

For the sequence “CTTGGGCCTTGGGTTCTAACCTGTTGCCT (site CGTGGGCCTAG)”, the “recombinant barcode read abundance (log10)” value was found to be 0.186.

As for “CTTGGGCCTTGGGTTCTAACCTGTTGCCT (site CTTGGGCCTAG)”, the “recombinant barcode read abundance (log10)” value is 0.417.

Consider “CTTTGAACTTGGGTTCTAACCTGTTGCTA (site CTTTGAACTTA)”, for which the “recombinant barcode read abundance (log10)” value turned out to be 0.016.

Regarding “CTTTGAACTTGGGTTCTAACCTGTTGCTA (site TCGATCCCTAC)”, the “recombinant barcode read abundance (log10)” value was found to be 0.102.

On to “CTTTGGCCTTGGGTTCTAACCTGTTGCTT (site CCTTGGGCTAA)”, for which the “recombinant barcode read abundance (log10)” value stood at 0.439.

Turning to “CTTTGGCCTTGGGTTCTAACCTGTTGCTT (site CTTTGGCCTAA)”, the “recombinant barcode read abundance (log10)” value was 0.0961.

In the case of “CTTTGTGCTTGGGTTCTAACCTGTTGCCT (site CTTAGGGCTAG)”, the “recombinant barcode read abundance (log10)” value is 0.32.

With “CTTTGTGCTTGGGTTCTAACCTGTTGCCT (site CTTTGTGCTAG)”, the “recombinant barcode read abundance (log10)” value was 0.129.

As to “GAAACTGCTTGGGTTCTAACCTGTTGCCT (site GAAACTGCTAG)”, the “recombinant barcode read abundance (log10)” value worked out at 0.736.

“GAAACTGCTTGGGTTCTAACCTGTTGCCT (site GACACTGCTAG)”: the “recombinant barcode read abundance (log10)” value was found to be 0.211.

On to “GAAACTGCTTGGGTTCTAACCTGTTGCCT (site GAGACTGCTAG)”, for which the “recombinant barcode read abundance (log10)” value amounted to 0.158.

For the sequence “GAAACTGCTTGGGTTCTAACCTGTTGCCT (site GATACTGCTAG)”, the “recombinant barcode read abundance (log10)” value amounted to 0.0634.

Take “GAAAGCTCTTGGGTTCTAACCTGTTGCGT (site GAAAGCTCTAC)”: the “recombinant barcode read abundance (log10)” value amounted to 2.99.
